Key:
liver X receptor alpha = molecular target: T1, liver X receptor alpha (Homo sapiens, UniProt Q13133); assay: gene transactivation (luciferase reporter) assay in human embryonic kidney 293 cells, liver X receptor alpha; assay type: cell-based; details: 1 to 10 μM
T1 sequence (Q13133 1-447): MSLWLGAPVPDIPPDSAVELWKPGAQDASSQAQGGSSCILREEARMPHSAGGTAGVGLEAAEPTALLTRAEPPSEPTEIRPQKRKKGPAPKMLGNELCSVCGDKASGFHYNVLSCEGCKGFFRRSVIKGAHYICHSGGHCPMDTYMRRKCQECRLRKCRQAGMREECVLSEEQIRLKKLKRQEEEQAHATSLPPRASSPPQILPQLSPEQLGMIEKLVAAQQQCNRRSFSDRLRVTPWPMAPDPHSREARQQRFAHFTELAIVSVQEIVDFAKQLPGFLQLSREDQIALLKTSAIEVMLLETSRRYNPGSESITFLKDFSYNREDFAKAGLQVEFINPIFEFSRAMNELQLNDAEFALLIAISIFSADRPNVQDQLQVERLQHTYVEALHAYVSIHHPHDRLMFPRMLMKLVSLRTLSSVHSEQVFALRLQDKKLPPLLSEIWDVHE
T1 sequence (P19793 1-462 partner): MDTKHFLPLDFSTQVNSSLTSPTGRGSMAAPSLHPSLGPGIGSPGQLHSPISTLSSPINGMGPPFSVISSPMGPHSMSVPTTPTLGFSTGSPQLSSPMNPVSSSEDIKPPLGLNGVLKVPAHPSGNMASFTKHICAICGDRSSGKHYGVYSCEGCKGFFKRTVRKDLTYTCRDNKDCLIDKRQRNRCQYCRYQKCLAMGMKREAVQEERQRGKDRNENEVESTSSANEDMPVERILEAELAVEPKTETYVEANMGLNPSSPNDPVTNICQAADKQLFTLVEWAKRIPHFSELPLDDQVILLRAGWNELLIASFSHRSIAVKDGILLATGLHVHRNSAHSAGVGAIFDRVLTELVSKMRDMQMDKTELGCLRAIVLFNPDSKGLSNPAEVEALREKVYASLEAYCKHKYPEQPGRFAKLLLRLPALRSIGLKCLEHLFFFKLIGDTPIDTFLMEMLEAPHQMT
Description: (§1) See, e.g., Song, C. et al., Steroids, 2000, 65, 423-427.
(§2) Specifically, human embryonic kidney 293 cells were seeded into a 48-well culture plate at 10^5 cells per well in a Dulbecco's modified Eagle's medium (DMEM) supplemented with 10% fetal bovine serum. After incubation for 24 hours, the cells were transfected by the calcium phosphate coprecipitation method with 250 ng of a pGL3/UREluc reporter gene that consisted of three copies of AGGTCAagccAGGTCA fused to nucleotides −56 to +109 of the human c-fos promoter in front of the firefly luciferase gene in the plasmid basic pGL3 (Promega, Madison, Wis.), 40 ng pSG5/hRXRα, 40 ng pSG5/rUR or CMX/hliver X receptorα, 10 ng pSG5/hGrip1, 0.4 ng CMV/R-luc (transfection normalization reporter, Promega) and 250 ng carrier DNA per well. […]
(§3) After incubation for another 12 to 24 hours, the cells were washed with phosphate buffer saline and then refed with DMEM supplemented with 4% delipidated fetal bovine serum. […] After incubation for another 24 to 48 hours, the cells were harvested and the luciferase activity was measured with a commercial kit (Promega Dual luciferase II) on a Monolight luminometer (Becton Dickenson, Mountain View, Calif.).

[1] = molecular target: T2, liver X receptor beta (i.e., UR) (Rattus norvegicus, UniProt Q62755); assay: gene transactivation (luciferase reporter) assay in human embryonic kidney 293 cells, liver X receptor beta (UR); assay type: cell-based; details: 1 to 10 μM
T2 sequence (Q62755 1-446): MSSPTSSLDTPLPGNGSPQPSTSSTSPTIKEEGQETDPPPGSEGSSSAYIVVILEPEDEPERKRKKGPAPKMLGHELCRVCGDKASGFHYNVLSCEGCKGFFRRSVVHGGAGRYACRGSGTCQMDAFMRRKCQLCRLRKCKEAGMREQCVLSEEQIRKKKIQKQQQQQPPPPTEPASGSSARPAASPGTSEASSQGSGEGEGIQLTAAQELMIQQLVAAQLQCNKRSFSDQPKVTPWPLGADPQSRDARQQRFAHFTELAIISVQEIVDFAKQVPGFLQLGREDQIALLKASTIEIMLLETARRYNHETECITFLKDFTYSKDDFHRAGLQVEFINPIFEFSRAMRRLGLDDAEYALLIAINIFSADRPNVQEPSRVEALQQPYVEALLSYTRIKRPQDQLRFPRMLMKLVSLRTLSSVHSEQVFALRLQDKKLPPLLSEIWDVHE
T2 sequence (P19793 1-462 partner): T1 sequence (P19793 1-462 partner)
Description: as §1, §2, §3

Row | SMILES | liver X receptor alpha agonistic activity (liver X receptor alpha) | liver X receptor beta (UR) agonistic activity [1]
1 | CON(C)C(=O)CC[C@@H](C)[C@H]1CC[C@H]2[C@@H]3C[C@H](O)[C@@H]4C[C@H](O)CC[C@]4(C)[C@H]3CC[C@]12C [hypocholamide, N-methyl-N-methoxy-3α,6α-dihydroxy-5β-cholanoic acid-24-amide] | unexpectedly potent agonists | unexpectedly potent agonists
2 | CC(CCC(O)(C(F)(F)F)C(F)(F)F)C1CCC2C3CC(O)C4CC(O)CCC4(C)C3CCC12C (stereo not drawn) [hypocholaride, 3α,6α,24-trihydroxy-5β-24,24-di(trifluoromethyl)-cholestane] | unexpectedly potent agonists | unexpectedly potent agonists

Source: patent publication US20070032464A1, “Methods of treating cancers” (priority 2004, published 2007)
